Calls of active or inactive are those of the source. No cut-off for these calls is given here.
What was measured:
[1] = Cytotoxicity against human 8505C cells measured after 96 hrs by SRB assay; type: functional, cell-based
[2] = Cell cycle arrest in human A2780 cells assessed as loss of G2 peak at 1.5 uM measured after 24 hrs by propidium iodide staining based FACS analysis; type: functional
A2780 [3] = test: Induction of apoptosis in human A2780 cells assessed as increase in secondary necrotic cells at 1.5 uM measured after 48 hrs by Annexin V/FITC/propidium iodide staining-based FACS analysis relative to control; type: functional
A2780 [4] = test: Induction of apoptosis in human A2780 cells assessed as increase in apoptotic cells at 6 uM measured after 2 days by Annexin V/FITC/propidium iodide staining-based FACS analysis; type: functional, cell-based
[5] = Cytotoxicity against mouse NIH/3T3 cells measured after 96 hrs by SRB assay; type: toxicity, NIH3T3
[6] = Cytotoxicity against human 518A2 cells measured after 96 hrs by SRB assay; type: functional, cell-based; settings: 518A2, 96 h
A2780 [7] = test: Induction of apoptosis in human A2780 cells assessed as apoptotic cells at 1.5 uM measured after 48 hrs by Annexin V/FITC/propidium iodide staining-based FACS analysis relative to control; type: functional
[8] = Cytotoxicity against human MCF7 cells measured after 96 hrs by SRB assay; type: functional, cell-based; settings: MCF7, 96 h
A2780 [9] = test: Induction of apoptosis in human A2780 cells assessed as secondary necrotic cells at 6 uM measured after 2 days by Annexin V/FITC/propidium iodide staining-based FACS analysis; type: functional, cell-based
[10] = Cytotoxicity against human HT-29 cells measured after 96 hrs by SRB assay; type: functional, cell-based; settings: HT-29, 96 h
[11] = Cytotoxicity against human A549 cells measured after 96 hrs by SRB assay; type: functional, cell-based; settings: A549, 96 h
[12] = Cell cycle arrest in human A2780 cells assessed as decrease in accumulation of cells at S-phase at 1.5 uM measured after 48 hrs by propidium iodide staining based FACS analysis; type: functional
[13] = Cell cycle arrest in human A2780 cells assessed as accumulation at S-phase at 1.5 uM measured after 24 hrs by propidium iodide staining based FACS analysis; type: functional
[14] = Cytotoxicity against human A2780 cells measured after 96 hrs by SRB assay; type: functional, cell-based; settings: A2780, 96 h
[15] = Cell cycle arrest in human A2780 cells assessed as sub-G1 peak appearance at 1.5 uM measured after 48 hrs by propidium iodide staining based FACS analysis; type: functional
[16] = Cell cycle arrest in human A2780 cells assessed as decrease in G1 peak at 1.5 uM measured after 24 hrs by propidium iodide staining based FACS analysis; type: functional
[17] = Cell cycle arrest in human A2780 cells assessed as decrease in accumulation of cells at S-phase at 6 uM measured after 48 hrs by propidium iodide staining based FACS analysis; type: functional
A2780 [18] = test: Induction of apoptosis in human A2780 cells assessed as secondary necrotic cells at 6 uM measured after 40 hrs by acridine orange/propidium iodide staining-based fluorescence microscopic analysis; type: functional, cell-based
[19] = Cell cycle arrest in human A2780 cells assessed as decrease in G1 peak at 6 uM measured after 24 hrs by propidium iodide staining based FACS analysis; type: functional
[20] = Cell cycle arrest in human A2780 cells assessed as sub-G1 peak appearance at 6 uM measured after 48 hrs by propidium iodide staining based FACS analysis; type: functional
[21] = Cell cycle arrest in human A2780 cells assessed as accumulation at S-phase at 6 uM measured after 24 hrs by propidium iodide staining based FACS analysis; type: functional
[22] = Cell cycle arrest in human A2780 cells assessed as loss of G2 peak at 6 uM measured after 24 hrs by propidium iodide staining based FACS analysis; type: functional
A2780 [23] = test: Induction of apoptosis in human A2780 cells assessed as induction of membrane blebbing at 6 uM measured after 40 hrs by acridine orange/propidium iodide staining-based fluorescence microscopic analysis; type: functional, cell-based
A2780 [24] = test: Induction of apoptosis in human A2780 cells assessed as increase in apoptotic cells at 1.5 uM measured after 24 hrs by Annexin V/FITC/propidium iodide staining-based FACS analysis relative to control; type: functional
A2780 [25] = test: Selectivity index, ratio of EC50 for mouse NIH/3T3 cells to EC50 for human A2780 cells; type: functional

Row | Compound | EC50 [1] [nM] | Activity [2] | Activity (A2780 [3]) | Activity (A2780 [4]) | EC50 at 96 h [5] [nM] | EC50 [6] [nM] | Activity (A2780 [7]) | EC50 [8] [nM] | Activity (A2780 [9]) | EC50 [10] [nM] | EC50 [11] [nM] | Activity [12] | Activity [13] | EC50 [14] [nM] | Activity [15] | Activity [16] | other results
1 | CC(=O)OC[C@@]1(C)[C@@H]2CC[C@]3(C)[C@H](CC=C4[C@@H]5[C@@H](C)[C@H](C)CC[C@]5(C(=O)Nc5cccc6ncccc56)CC[C@]43C)[C@@]2(C)C[C@@H](OC(C)=O)[C@@H]1OC(C)=O | 900 | Active | Active | Active | 10200 | 500 | Active | 1400 | Active | 800 | 1100 | Active | Active | 400 | Active | Active | –
2 | CC(=O)O[C@H]1C[C@]2(C)[C@H]3CC=C4[C@@H]5CC(C)(C)CC[C@]5(C(=O)Nc5cncc6ccccc56)CC[C@@]4(C)[C@]3(C)CC[C@H]2C(C)(C)[C@H]1OC(C)=O | 2600 | – | – | Active | > 60000 | 1600 | – | 2400 | Active | 2300 | 3300 | – | – | 1200 | – | – | Activity [17]: Active; Activity (A2780 [18]): Active; Activity [19]: Active; Activity [20]: Active; Activity [21]: Active; Activity [22]: Active; Activity (A2780 [23]): Active
3 | CC(=O)OC[C@@]1(C)[C@@H]2CC[C@]3(C)[C@H](CC=C4[C@@H]5[C@@H](C)[C@H](C)CC[C@]5(C(=O)Nc5cncc6ccccc56)CC[C@]43C)[C@@]2(C)C[C@@H](OC(C)=O)[C@@H]1OC(C)=O | – | Active | 45% | Active | 3230 | 190 | 10% | 540 | Active | 220 | 290 | Active | Active | 80 | Active | Active | Activity (A2780 [24]): 20%; Ratio EC50 (A2780 [25]): 40

Source: ChEMBL document CHEMBL3865812, “Selective killing of cancer cells with triterpenoic acid amides - The substantial role of an aromatic moiety alignment” (Eur J Med Chem, 2016)
